# Source: patent publication US20250186461A1, “METHODS AND COMPOSITIONS FOR TREATING AND/OR PREVENTING HERNIAS” (Northwestern University, priority 2023, published 2025)
# “Also recorded” adds a separate entry of the source.
# Experiments:
# [1] = system: LAM primary fibroblasts from Arom^hum mice; experiment: mRNA levels of P4/PGR-responsive and fibrotic genes in LAM primary fibroblasts; type: cell-based, mouse
# [2] = target: T1, glucocorticoid receptor (GR) (Homo sapiens, UniProt P04150); details: cited from earlier work
# T1 sequence (P04150 1-777): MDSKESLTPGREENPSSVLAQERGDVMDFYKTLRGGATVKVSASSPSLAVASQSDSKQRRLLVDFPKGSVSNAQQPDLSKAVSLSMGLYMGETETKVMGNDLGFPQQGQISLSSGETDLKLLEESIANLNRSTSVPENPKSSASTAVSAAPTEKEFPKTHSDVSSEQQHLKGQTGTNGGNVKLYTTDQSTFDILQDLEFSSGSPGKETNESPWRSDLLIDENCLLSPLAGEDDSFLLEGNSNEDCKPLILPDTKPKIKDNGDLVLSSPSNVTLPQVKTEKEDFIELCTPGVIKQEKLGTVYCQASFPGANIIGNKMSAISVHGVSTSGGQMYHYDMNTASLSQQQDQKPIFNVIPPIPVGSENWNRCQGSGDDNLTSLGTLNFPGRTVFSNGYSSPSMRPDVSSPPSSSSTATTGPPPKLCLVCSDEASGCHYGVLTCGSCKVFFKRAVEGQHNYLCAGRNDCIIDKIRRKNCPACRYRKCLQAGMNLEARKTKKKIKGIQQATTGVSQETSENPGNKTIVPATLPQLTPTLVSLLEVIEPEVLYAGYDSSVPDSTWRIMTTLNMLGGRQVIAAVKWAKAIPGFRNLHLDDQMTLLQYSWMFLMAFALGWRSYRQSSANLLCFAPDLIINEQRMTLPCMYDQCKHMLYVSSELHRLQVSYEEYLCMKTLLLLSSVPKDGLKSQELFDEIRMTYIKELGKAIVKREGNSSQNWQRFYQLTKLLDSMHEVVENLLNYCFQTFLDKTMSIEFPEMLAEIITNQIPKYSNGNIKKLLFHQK
# [3] = system: LAM fibroblasts from Arom^hum mice; experiment: Click-iT EdU proliferation assay; type: cell-based, mouse; details: 1 μM antagonist; E2 (10 nM)+R5020 (100 nM)
# [4] = target: T2, aromatase enzyme (Homo sapiens, UniProt P11511); details: cited from earlier work
# T2 sequence (P11511 1-503): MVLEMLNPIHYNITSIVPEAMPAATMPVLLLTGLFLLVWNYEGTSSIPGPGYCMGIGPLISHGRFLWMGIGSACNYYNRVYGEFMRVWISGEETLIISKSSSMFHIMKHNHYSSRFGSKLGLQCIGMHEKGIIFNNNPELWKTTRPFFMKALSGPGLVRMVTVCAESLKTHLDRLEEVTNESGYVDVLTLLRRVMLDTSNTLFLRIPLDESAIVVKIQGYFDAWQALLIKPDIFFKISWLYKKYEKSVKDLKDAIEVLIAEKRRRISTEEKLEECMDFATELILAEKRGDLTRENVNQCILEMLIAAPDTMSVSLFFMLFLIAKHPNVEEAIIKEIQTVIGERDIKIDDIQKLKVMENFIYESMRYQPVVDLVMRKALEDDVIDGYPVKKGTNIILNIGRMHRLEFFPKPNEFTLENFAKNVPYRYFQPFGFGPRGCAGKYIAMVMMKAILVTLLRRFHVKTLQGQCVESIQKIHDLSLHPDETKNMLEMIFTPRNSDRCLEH
# [5] = long-term use; cited from earlier work
# [6] = target: T3, PGR (Homo sapiens, UniProt P06401); details: cited from earlier work
# T3 sequence (P06401 1-933): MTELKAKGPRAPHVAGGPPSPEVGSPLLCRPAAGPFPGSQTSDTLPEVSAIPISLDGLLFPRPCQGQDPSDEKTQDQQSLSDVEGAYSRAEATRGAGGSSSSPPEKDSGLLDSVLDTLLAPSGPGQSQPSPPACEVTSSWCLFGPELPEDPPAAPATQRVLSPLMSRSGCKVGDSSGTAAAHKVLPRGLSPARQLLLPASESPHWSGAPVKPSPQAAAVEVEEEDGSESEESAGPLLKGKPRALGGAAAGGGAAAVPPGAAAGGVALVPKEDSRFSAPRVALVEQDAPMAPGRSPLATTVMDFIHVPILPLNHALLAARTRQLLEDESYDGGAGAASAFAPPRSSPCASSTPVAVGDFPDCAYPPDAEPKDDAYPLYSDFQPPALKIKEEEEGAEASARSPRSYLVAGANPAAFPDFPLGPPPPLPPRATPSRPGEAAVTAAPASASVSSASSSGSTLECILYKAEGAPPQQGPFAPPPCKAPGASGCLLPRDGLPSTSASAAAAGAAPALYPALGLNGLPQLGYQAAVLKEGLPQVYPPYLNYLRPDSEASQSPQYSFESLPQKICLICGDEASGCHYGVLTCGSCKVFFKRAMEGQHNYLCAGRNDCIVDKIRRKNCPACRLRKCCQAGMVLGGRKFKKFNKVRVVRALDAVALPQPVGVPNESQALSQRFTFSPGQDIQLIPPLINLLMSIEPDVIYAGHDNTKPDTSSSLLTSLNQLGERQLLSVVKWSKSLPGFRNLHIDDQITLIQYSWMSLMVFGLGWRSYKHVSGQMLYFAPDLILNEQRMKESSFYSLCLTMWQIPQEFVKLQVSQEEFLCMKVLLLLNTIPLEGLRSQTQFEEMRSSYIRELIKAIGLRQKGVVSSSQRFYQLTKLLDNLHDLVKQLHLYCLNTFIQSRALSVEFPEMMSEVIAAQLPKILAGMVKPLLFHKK
smiles,measurement,setting,value
"CN(C)c1ccc([C@H]2C[C@]3(C)[C@@H](CC[C@]3(O)CCCO)[C@@H]3CCC4=CC(=O)CCC4=C32)cc1 [ZK299, Onapristone]","E2+R5020-induced expression of P4/PGR-responsive (Greb1, Cyp7b1) and fibrotic genes (Adamtsl1, Col1a1, Col14a1)","[1]; 1 μM antagonist, pretreated 2 h before E2 (10 nM)+R5020 (100 nM)",significantly decreased; also recorded: strongest inhibition
same,"E2+R5020-stimulated expression of Col1a1 and Col12a1, blockade",[1]; pretreatment with 1 μM antagonist,blocked
same,anti-glucocorticoid activity,[2],minimal or no antiglucocorticoid properties
same,inhibition of E2+R5020-stimulated LAM fibroblast proliferation,[3],inhibited; also recorded: blocked
same,inhibition of aromatase enzyme activity,[4],weak aromatase inhibitor
same,liver toxicity,[5],significant liver toxicity
same,P4/PGR antagonism and PGR selectivity,[6],highly PGR-selective pure P4 antagonist
